Measured values: patent publication US11401516B2, “Channel modulators” (AUCKLAND UNISERVICES LIMITED, priority 2014, dated 2022)

Experiments:
[1] = target: T1, hemichannel activity in HCMVEC cells (Homo sapiens, UniProt P17302); test: Whole-cell voltage clamp, hCMVEC cells; format: cell-based; conditions: for hemichannel activity: 50 μM
T1 construct: isolated human cerebral microvascular endothelial cells (hCMVEC); endogenous in cells; host or cells: hCMVEC
Description: Whole-cell voltage clamp studies were conducted on connexin deficient HeLa cells, Connexin43 transfected HeLa cells and isolated human cerebral microvascular endothelial cells (hCMVEC).
HCMVEC Cells were placed into an extracellular artificial cerebral spinal fluid solution containing (in mM): 144 NaCl, 3.3 KCl, 1.8 CaCl2, 1.8 MgCl2, 10 mM glucose, pH: 7.385 at temperature 37° C. The intracellular pipette solution contained (in mM): 130 KCl, 10 sodium aspartate, 0.26 CaCl2, 2 EGTA, 5 tetraethylammonium-Cl, 1 MgCl2,3 MgATP, 5 Hepes at pH 7.2; and was kept on ice to prevent MgATP breakdown. Pipette resistance was 3.4MΩ with seal resistance=1.3 GΩ. Voltage and perfusion protocols are conducted simultaneously, with cells continuously perfused. Recordings for analysis were taken before Tonabersat perfusion, during and after washout. For channel block studies, 50 μM Tonabersat was washed in for three mins prior to recording, and subsequently washed out three mins before taking the washout recordings.

[2] = test system: Cx43 hemichannel and pannexin channel mediated ATP release from hCMVEC cells; test: In vitro ischaemia injury-reperfusion ATP assay; format: cell-based, human; conditions: 2-hour injury then 2-hour reperfusion; 100 μM CBX, 100 μM Peptide5, 1 mM Probenecid, 10 μM Tonabersat
Description: Using an in vitro ischemia injury model, the Cx43 hemichannel and pannexin channel mediated ATP release was differentiated using the connexin hemichannel blocking mimetic peptide5 at 100 μM concentration (S. J. O'Carroll, et al., Cell communication & adhesion 15, 27 (May, 2008)) and 1 mM Probenecid (W. R. Silverman et al., The Journal of biological chemistry 284, 18143 (Jul. 3, 2009)).
Human cerebral microvascular endothelial cells (hCMVEC) were trypsinised (TrypLE Express, Life technologies) and plated at a density of 0.025×10^6 cells per well in a collagen-coated 12-well plate (1 μg/cm2) a day prior to the experiment. Cells were incubated in culture medium overnight. Hypoxic, acidic, ion-shifted Ringer injury solution that mimics ionic concentrations and acid-base shifts of the interstitial space in hypoxic-ischemic brains (A. Bondarenko, et al., Glia 34, 143 (Apr. 15, 2001)) was used to trigger hemichannel opening. […] ATP concentration in the samples was determined using a Luciferin/luciferase bioluminescence reaction (ATP Determination Kit, Molecular Probes) and detected using a luminescence plate reader (VICTOR X, Perkin Elmer #2030-0010). Standard curves were generated in each experiment from an ATP standard (500 nM) to quantify the concentration of ATP in the test samples. […]

T1 sequence (P17302 2-382): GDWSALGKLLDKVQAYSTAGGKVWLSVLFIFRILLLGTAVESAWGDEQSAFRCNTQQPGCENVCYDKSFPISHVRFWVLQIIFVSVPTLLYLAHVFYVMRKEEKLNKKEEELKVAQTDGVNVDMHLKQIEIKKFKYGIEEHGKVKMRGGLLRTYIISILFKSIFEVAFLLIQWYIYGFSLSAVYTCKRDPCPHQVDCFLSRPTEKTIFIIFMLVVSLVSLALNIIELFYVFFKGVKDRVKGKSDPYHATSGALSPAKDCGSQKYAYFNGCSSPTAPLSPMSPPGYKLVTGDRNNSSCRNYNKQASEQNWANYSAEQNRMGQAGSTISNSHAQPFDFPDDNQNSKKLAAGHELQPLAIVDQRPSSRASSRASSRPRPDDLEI

For CC(=O)c1ccc2c(c1)[C@H](NC(=O)c1ccc(F)c(Cl)c1)[C@H](O)C(C)(C)O2 [Tonabersat, N-[(3S,4S)-6-acetyl-3-hydroxy-2,2-dimethyl-3,4-dihydrochromen-4-yl]-3-chloro-4-fluorobenzamide], which “time to block connexin hemichannels” value [1] is on record?
Its value is “within one minute”.

And the hemichannel activity ([1]; after three minutes of washout)?
Its hemichannel activity is “some activity returning after washout”.

And the hemichannel activity ([1]; during incubation)?
Its hemichannel activity is “almost completely abolishes hemichannel activity”.

And the “ATP release, percentage of the injury-reperfusion (IR) control” value [2]?
The value was 68.9±6.9%.
